US7169762B2, “Substance having physiological property, method for producing the same and uses thereof” (Amino Up Chemical Co., Ltd., priority 2001, dated 2007)

Experiments:
TNF-α and IFN-γ = assay: cytokine concentrations in supernatant of LPS-stimulated macrophage (PEC) culture after oral administration to mice; format: in vivo, mouse; settings: 1 g/kg oral for 1 week, C57/BL6 mice; PEC macrophages + LPS 100 ng/ml, 4 hours
Description: (§1) The physiological activity assays were performed by forcibly administering 1 g/kg of a sample to 6-week age male C57/BL6 mice for 1 week by oral route. Spleen cells and peritoneal exudate cells (PEC) were collected after sacrificing the animals. They were cultivated and assayed TNF-α, IFN-γ, and IL-2.
PEC (peritoneal exudate cells) collected from mouse abdominal cavity with physiological saline were centrifuged, (1,000 rpm, 10 minutes) to collect cells, which were used as macrophages. To the macrophages LPS (lipopoly saccharide) was added at a final concentration of 100 ng/ml and the cells were cultivated. After 4 hours, TNF-α, IFN-γ, and IL-2 in the culture supernatant were assayed.
(§2) For both a) and b) above, a kit for assaying cytokine (Wako Pure Chemical Industries, Ltd.) was used.

TNF-α, IFN-γ and IL-2 = assay: cytokine concentrations in supernatant of ConA-stimulated spleen cell culture after oral administration to mice; format: in vivo, mouse; settings: 1 g/kg oral for 1 week, C57/BL6 mice, IL-2 in culture supernatant (FIGS. 1 to 3)
Description: as §1
The collected mouse spleen was homogenized in DMEM medium and the homogenate was centrifuged at 4° C. (1,000 rpm, 5 minutes) To this was added ASK lysis buffer and the mixture was incubated (37° C., 3 minutes) in order to remove erythrocytes, followed by centrifugation (1,000 rpm, 5 minutes). To the spleen cells thus collected was added ConA at a final concentration of 10 μg/ml and cultivated in a microplate. After 15 hours, the culture supernatant was collected for assaying TNF-α, IFN-γ, and IL-2.
as §2

## CC(=O)c1occc1OC1OC(CO)C(O)C(O)C1O [substance A, 2-acetyl-3-hydroxyfuran 3-O-α-D-glucopyranoside]
TNF-α and IFN-γ
  cytokine induction ability, macrophage: high cytokine induction ability
TNF-α, IFN-γ and IL-2
  cytokine induction ability: considerable cytokine induction ability
